Structures are written as SMILES.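 Cells were grown in 96-well plates and exposed to each compound for 48 hours at five concentrations; endpoints were interpolated linearly between bracketing concentrations, or set to the highest concentration if not reached. GI50 marks 50% less growth. The concentration for full growth arrest is given as TGI.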

What all share (experiment): NCI-60 cell line screen, 48 h
The test system of test [1] is HCT-116 colon.
The test system of test [2] is BT-549 breast.
Test [3] relates to M14 melanoma.
The subject of test [4] is COLO 205 colon.
Test [5] relates to TK-10 renal.
For test [6], the system named is 786-0 renal.
Test [7] has as its system HOP-92 NSCLC.
Test [8] relates to HOP-62 NSCLC.
In test [9] the test system is MCF7 breast.
For test [10], the system named is HS 578T breast.
Test [11] has as its system IGROV1 ovarian.
The subject of test [12] is UACC-257 melanoma.
Test [13] deals with SK-MEL-5 melanoma.

On to `COc1cc(C2c3cc4c(cc3OC(N3CCCCC3)C2C)OCO4)cc(OC)c1O` (configuration not stated), for which the TGI in test [1] was 25.7 µM; in test [2] it was 90.5 µM; in test [3] it was above 69.4 µM; in test [4], 38.6 µM; in test [5], 38.5 µM; in test [6], 27.7 µM. The TGI was 37.3 µM in test [7]; 25.9 µM in test [8]; above 43 µM in test [9]; 31.8 µM in test [10]; 36.4 µM in test [11]; 41.9 µM in test [12]. In test [13], this compound showed a TGI of 19.8 µM.

Regarding `Cc1ccnc2[nH]c(-c3ccc4ccccc4c3)cc(=O)c12`, the GI50 in [1] is 0.428 µM; in [13], 0.437 µM. Also, the TGI was found to be 2.31 µM in test [1]; 31.8 µM in [2]; 23.2 µM in test [3]; 13.3 µM in test [4]; 13.4 µM in test [5]; 5.97 µM in test [6]. In addition, the TGI turned out to be 4.78 µM in test [7]; 12.6 µM in [8]; 3.91 µM in [9]; 5.6 µM in test [10]; 11.1 µM in test [11]; 32.8 µM in [12]. The same compound came in with a TGI in [13] of 12.7 µM.

As for `CC(=O)CCn1c(=S)sc2ccccc21`, the TGI in test [1], in test [2], in test [3], in [4], in test [5] and in test [6] was above 100 µM each time. Moreover, the TGI in test [7], in test [8], in test [9], in test [10], in test [11] and in [12] was above 100 µM in each case. Further, the TGI in test [13] was above 100 µM.

With `O=C(/C=C/c1ccccc1)Oc1cccc(O)c1`, the TGI was 31.8 µM in test [1]; above 100 µM in test [2]; above 100 µM in test [3]; above 100 µM in test [4]; above 100 µM in [5]; above 100 µM in [6]. The TGI is above 100 µM in test [7]; above 100 µM in test [8]; above 100 µM in [9]; above 100 µM in [10]; 43.6 µM in [11]; above 100 µM in [12]. Moreover, the TGI in test [13] is above 100 µM.

On to `Cc1ccc(-c2c(C#N)c(-c3ccc(C)cc3)n(NS(=O)(=O)c3ccccc3)c(=O)c2C#N)cc1`, for which the TGI in test [1], in test [2], in [3], in [4], in test [5] and in test [6] was above 100 µM in each case. In addition, the TGI in test [7], in test [8], in [9], in [10], in test [11] and in [12] was above 100 µM each time. In addition, in test [13], the TGI was 31.2 µM.

Turning to `CCOC1(OCC)C2C=CC1C(COS(=O)(=O)c1ccc(C)cc1)C2COS(=O)(=O)c1ccc(C)cc1` (configuration not stated), the TGI in test [1] is 77.1 µM; in [2] it was above 100 µM; in test [3], 96.5 µM; in test [4], 50.7 µM; in test [5], above 100 µM; in [6], above 100 µM. Further, the TGI is 48 µM in test [7]; above 100 µM in [8]; above 100 µM in [9]; above 100 µM in [10]; above 100 µM in test [11]; 62.2 µM in test [12]. The TGI in test [13] worked out at 31 µM.

Consider `O=C1Sc2cc3ccccc3cc2C(=O)Sc2ccc(Br)cc21`, for which the TGI was found to be 16.3 µM in test [1]; 12.1 µM in test [2]; 14.4 µM in test [3]; 34.9 µM in [4]; 17.8 µM in [5]; 5.63 µM in [6]. The TGI was 20.9 µM in [7]; 18.3 µM in [8]; 37.9 µM in [9]; above 35 µM in [10]; 16.8 µM in [11]; 17.6 µM in test [12]. Besides, the TGI in test [13] came out at 27.5 µM.

As to `Cc1[nH]c(=O)nc2nc3ccc(Cl)cc3c(NCCNCCO)c12`, the TGI is 18.5 µM in test [1]; 30.5 µM in [2]; 25.8 µM in test [3]; 21.6 µM in [4]; 33.1 µM in test [5]; 21.2 µM in test [6]. The TGI in test [7] was determined as 24.2 µM; in [8], 20.6 µM; in test [9], 26.6 µM; in [10], 31.8 µM; in [11], 25.4 µM; in test [12], 25 µM. In [13], this compound showed a TGI of 25.4 µM.

Consider `O=C(Nc1ccccc1)c1cc(S(=O)(=O)NC2=NC(c3ccccc3)c3cc(Cl)ccc3N2)c(SSc2cc(Cl)c(C(=O)Nc3ccccc3)cc2S(=O)(=O)NC2=NC(c3ccccc3)c3cc(Cl)ccc3N2)cc1Cl` (configuration not stated), for which the TGI in [1], in test [2], in test [3], in test [4], in test [5] and in [6] was above 100 µM each time. The TGI in [7], in test [8], in [9], in [10], in [11] and in [12] was above 100 µM in each case. Moreover, the TGI in [13] was above 100 µM.

For the compound `COc1ccc(C2SC(N)=Nc3c2c(C)nn3C(=O)c2ccncc2)cc1OC` (configuration not stated), the TGI in test [1], in test [2], in [3], in test [4], in [5] and in test [6] was above 10 µM in each case. For the same compound, the TGI in test [7], in test [8], in test [9], in test [10], in test [11] and in test [12] was above 10 µM throughout. The TGI in test [13] was above 10 µM.

The values above are taken from PubChem BioAssay (NCI).
